Source: patent publication US4968708A, “Imidazo[2,1-B]benzothiazole compounds and antiulcer compositions containing the same” (priority 1988, dated 1990)

What was measured:
gastric juice secretion = assay: Gastric juice secretion inhibition activity (pyloric ligature); assay type: in vivo, Wistar strain male rats; conditions: rats, 100 mg/kg p.o.; for inhibition in vivo at 100 mg/kg: Rattus norvegicus, po, read-out: Volume Inhibition Rate
Experimental: A suspension of each test compound in a 5% gum arabic aqueous solution was orally given to Wistar strain male rats (at the age of 7 to 8 weeks, weighing 180 to 250 g; 7-9 rats in the group administered with the test compound; 14-17 rats in the control group) fasted for 24 hours at a dose of 100 mg of the test compound/5 ml/kg. Thirty minutes after administration, pyloric ligature was made under ethereal anesthesia. Four hours thereafter, the stomach was excised under ethereal anesthesia to collect gastric juice. The collected gastric juice was centrifuged (2500 rpm) at 4° C. for 10 minutes. After the supernatant was collected, the amount of the gastric juice and its pH were measured using a pH meter. Furthermore, the amount of free hydrochloric acid and the total acidity were measured with Topfer reagent and phenolphthalein reagent, respectively. Using a part of the gastric juice, pepsin output in the gastric juice was measured using casein as a substrate in a manner similar to the method of Anson et al.
(§1) In the control group, a 5% gum arabic aqueous solution was orally administered at a dose of 5 ml/kg.

aspirin-induced ulcer = assay: Antiulcer activity against aspirin-induced ulcer model; assay type: in vivo, Wistar strain male rats; conditions: rats, 100 mg/kg p.o. 30 min before aspirin 200 mg/kg p.o.; for inhibition in vivo at 100 mg/kg: Rattus norvegicus, po, 7 h, read-out: Aspirin Induced Ulcer Inhibition Rate; for Aspirin Induced Ulcer Ulcer Index: stomach excised 7 h after aspirin
Experimental: Thirty minutes after administration, aspirin was further orally administered at a dose of 200 mg/kg. Seven hours after administration of aspirin, the stomach was excised under ethereal anesthesia and spotted and linear erosion and a long diameter of any ulcer were microscopically measured to determine an ulcer index and an inhibition rate.
as §1

ddy strain male mice = assay: Acute toxicity; assay type: in vivo; conditions: 7 days observation
Experimental: A suspension of each test compound in a 5% gum arabic aqueous solution was orally given to ddy strain male mice (at the age of 4 to 5 weeks, weighing 25 to 35 g; 2 to 9 mice in one group). For 7 days after the administration, the mice were observed as to if they were dead or alive. Based on the number of deaths, the LD50 value was determined by the Probit method.

[1] = test system: water-immersion stress ulcer; assay: Antiulcer activity against water-immersion stress ulcer; assay type: in vivo, Wistar strain male rats; conditions: rats; for inhibition in vivo at 100 mg/kg: Rattus norvegicus, po, 6 h, read-out: Water-Immersion Stress Ulcer Inhibition Rate; for Water-Immersion Stress Ulcer Ulcer Index: 100 mg/kg p.o. 30 min before 6 h water immersion at 22°±1° C.
Experimental: A suspension of each test compound in a 5% gum arabic aqueous solution was orally given to Wistar strain male rats (at the age of 7 to 8 weeks, weighing 180 to 250 g; 7-9 rats in the group administered with the test compound; 10-16 rats in the control group) fasted for 24 hours at a dose of 100 mg of the test compound/5 ml/kg. Thirty minutes after administration, the animal was immersed in a water bath at 22°±1° C. up to the xiphisternum using a stress cage made by Tokyo University, Faculty of Pharmacology, to apply a stress load for 6 hours. After applying the stress load, the rats had the cervical vertebra dislocated to death. Then, the stomach was excised and, spotted and linear erosion and a long diameter of any ulcer were microscopically measured to determine an ulcer index and an inhibition rate.
as §1

[2] = pyloric ligature, 4 h, second part of Table 5
[3] = 100 mg/kg p.o. 30 min before 6 h water immersion, vs control group
[4] = 4 h, pyloric ligature, 4 h, vs control group
[5] = pyloric ligature 30 min later, gastric juice collected after 4 h
[6] = pyloric ligature, 4 h, first part of Table 5

## Cc1nc2sc3ccccc3n2c1C(C)O (stereo not drawn) [Example 4, 3-(1-Hydroxyethyl)-2-methylimidazo[2,1-b]benzothiazole]
Gastric juice secretion; [2]
  Acid Output: 30.8 ± 5.1 mcEq/100 g
  Free HCl: 8.0 ± 2.9 mcEq/100 g
  Pepsin Output: 9.9 ± 1.3 mg tyrosine/100 g
  Volume (gastric juice): 0.69 ± 0.09 ml/100 g
  pH (gastric juice): 2.36 ± 0.21
aspirin-induced ulcer; vs control group
  inhibition in vivo at 100 mg/kg: 88.7%
aspirin-induced ulcer
  Aspirin Induced Ulcer Ulcer Index: 8.0 ± 2.9 mm^2
Ddy strain male mice; 500 mg/kg p.o
  Mortality (No. death/No. treated): 0/5
Ddy strain male mice; 1000 mg/kg p.o
  Mortality (No. death/No. treated): 0/5
[1]; [3]
  inhibition in vivo at 100 mg/kg: 69.2%
[1]
  Water-Immersion Stress Ulcer Ulcer Index: 7.3 ± 2.5 mm^2

## COc1ccc2c(c1)sc1nc(C)c(CO)n12 [Example 9, 7-Methoxy-2-methylimidazo[2,1-b]benzothiazole-3-methanol]
Gastric juice secretion; [4]
  inhibition in vivo at 100 mg/kg: 15.9%
Gastric juice secretion; [5]
  Volume (gastric juice): 5.3 ± 0.9 mL
Gastric juice secretion; pyloric ligature, 4 h
  Acidity: 76.2 ± 4.3 mEq/l
  Free HCl: 42.6 ± 5.2 mEq/l
  Pepsin Activity: 102.2 ± 3.9 units/ml
  Pepsin Output: 135.5 ± 22.7 units/hr
Gastric juice secretion; [6]
  pH (gastric juice): 1.55 ± 0.08
aspirin-induced ulcer; vs control group
  inhibition in vivo at 100 mg/kg: 15%
aspirin-induced ulcer
  Aspirin Induced Ulcer Ulcer Index: 64.8 ± 7.5 mm^2
[1]; [3]
  inhibition in vivo at 100 mg/kg: 51.5%
[1]
  Water-Immersion Stress Ulcer Ulcer Index: 6.4 ± 1.2 mm^2

## COc1ccc(COCc2c(C)nc3sc4ccccc4n23)cc1 [Example 14, 2-Methylimidazo[2,1-b]benzothiazole-3-methanol (4-methoxy-benzyl) ether]
Gastric juice secretion; [2]
  Acid Output: 196.8 ± 38.0 mcEq/100 g
  Free HCl: 144.9 ± 35.0 mcEq/100 g
  Pepsin Output: 22.4 ± 3.8 mg tyrosine/100 g
  Volume (gastric juice): 2.63 ± 0.35 ml/100 g
  pH (gastric juice): 1.42 ± 0.08
aspirin-induced ulcer; vs control group
  inhibition in vivo at 100 mg/kg: 15%
aspirin-induced ulcer
  Aspirin Induced Ulcer Ulcer Index: 71.5 ± 8.0 mm^2
Ddy strain male mice; 500 mg/kg p.o
  Mortality (No. death/No. treated): 0/5
Ddy strain male mice; 1000 mg/kg p.o
  Mortality (No. death/No. treated): 0/5
[1]; [3]
  inhibition in vivo at 100 mg/kg: 39%
[1]
  Water-Immersion Stress Ulcer Ulcer Index: 7.5 ± 2.2 mm^2

## CCCC(O)c1c(C)nc2sc3ccccc3n12 (stereo not drawn) [Example 5, 3(α-Hydroxy)butyl-2-methylimidazo[2,1-b]benzothiazole]
Gastric juice secretion; [4]
  inhibition in vivo at 100 mg/kg: -13.6%
Gastric juice secretion; [5]
  Volume (gastric juice): 6.7 ± 0.7 mL
Gastric juice secretion; pyloric ligature, 4 h
  Acidity: 45.0 ± 5.6 mEq/l
  Free HCl: 10.4 ± 2.1 mEq/l
  Pepsin Activity: 86.2 ± 1.9 units/ml
  Pepsin Output: 139.6 ± 16.7 units/hr
Gastric juice secretion; [6]
  pH (gastric juice): 2.17 ± 0.12
aspirin-induced ulcer; vs control group
  inhibition in vivo at 100 mg/kg: 23.7%
aspirin-induced ulcer
  Aspirin Induced Ulcer Ulcer Index: 43.8 ± 10.3 mm^2
[1]; [3]
  inhibition in vivo at 100 mg/kg: 5.1%
[1]
  Water-Immersion Stress Ulcer Ulcer Index: 20.4 ± 4.2 mm^2

## 2-Methyl-3-thenoyloxymethylimidazo[2,1-b]benzothiazole [Example 19]
Gastric juice secretion; [5]
  Volume (gastric juice): 4.9 ± 0.5 mL
Gastric juice secretion; pyloric ligature, 4 h
  Acidity: 78.9 ± 2.7 mEq/l
  Free HCl: 48.6 ± 3.4 mEq/l
  Pepsin Activity: 99.6 ± 2.2 units/ml
  Pepsin Output: 122.8 ± 14.4 units/hr
Gastric juice secretion; [6]
  pH (gastric juice): 1.56 ± 0.10
Gastric juice secretion; pyloric ligature, 4 h, vs control group
  Volume Inhibition Rate: 18.3%
aspirin-induced ulcer
  Aspirin Induced Ulcer Ulcer Index: 63.7 ± 8.1 mm^2
aspirin-induced ulcer; vs control group
  Aspirin Induced Ulcer Inhibition Rate: 4.6%
[1]
  Water-Immersion Stress Ulcer Ulcer Index: 11.3 ± 2.6 mm^2
[1]; [3]
  Water-Immersion Stress Ulcer Inhibition Rate: 51.5%

## Cc1nc2sc3ccccc3n2c1C(O)c1ccccc1 (stereo not drawn) [Example 7, 3(αHydroxy)benzyl-2-methylimidazo[2,1-b]benzothiazole]
Gastric juice secretion; [4]
  inhibition in vivo at 100 mg/kg: 8.5%
Gastric juice secretion; [5]
  Volume (gastric juice): 5.4 ± 0.6 mL
Gastric juice secretion; pyloric ligature, 4 h
  Acidity: 69.1 ± 7.0 mEq/l
  Free HCl: 39.7 ± 5.0 mEq/l
  Pepsin Activity: 99.5 ± 4.1 units/ml
  Pepsin Output: 135.0 ± 18.1 units/hr
Gastric juice secretion; [6]
  pH (gastric juice): 1.65 ± 0.13
aspirin-induced ulcer; vs control group
  inhibition in vivo at 100 mg/kg: 31%
aspirin-induced ulcer
  Aspirin Induced Ulcer Ulcer Index: 39.6 ± 3.7 mm^2
[1]; [3]
  inhibition in vivo at 100 mg/kg: 16.7%
[1]
  Water-Immersion Stress Ulcer Ulcer Index: 17.9 ± 4.5 mm^2

## COc1ccccc1C(=O)OCc1c(C)nc2sc3ccccc3n12 [Example 18]
Gastric juice secretion; [4]
  inhibition in vivo at 100 mg/kg: -35%
Gastric juice secretion; [5]
  Volume (gastric juice): 8.1 ± 0.8 mL
Gastric juice secretion; pyloric ligature, 4 h
  Acidity: 82.1 ± 5.0 mEq/l
  Free HCl: 51.7 ± 5.8 mEq/l
  Pepsin Activity: 91.4 ± 3.3 units/ml
  Pepsin Output: 186.6 ± 24.3 units/hr
Gastric juice secretion; [6]
  pH (gastric juice): 1.45 ± 0.06
aspirin-induced ulcer; vs control group
  inhibition in vivo at 100 mg/kg: 32.2%
aspirin-induced ulcer
  Aspirin Induced Ulcer Ulcer Index: 45.3 ± 10.4 mm^2
[1]; [3]
  inhibition in vivo at 100 mg/kg: 42.1%
[1]
  Water-Immersion Stress Ulcer Ulcer Index: 13.5 ± 4.1 mm^2

## CCNC(=O)OCc1c(C)nc2sc3ccccc3n12 [Example 20, 2-Methylimidazo[2,1-b]benzothiazole 3-methyl ethyl carbamate]
Gastric juice secretion; [4]
  inhibition in vivo at 100 mg/kg: 6.3%
Gastric juice secretion; [5]
  Volume (gastric juice): 5.9 ± 0.3 mL
Gastric juice secretion; pyloric ligature, 4 h
  Acidity: 54.5 ± 7.0 mEq/l
  Free HCl: 26.1 ± 5.5 mEq/l
  Pepsin Activity: 91.6 ± 1.7 units/ml
  Pepsin Output: 136.0 ± 7.2 units/hr
Gastric juice secretion; [6]
  pH (gastric juice): 1.89 ± 0.12
aspirin-induced ulcer; vs control group
  inhibition in vivo at 100 mg/kg: 26.2%
aspirin-induced ulcer
  Aspirin Induced Ulcer Ulcer Index: 56.2 ± 6.8 mm^2
[1]; [3]
  inhibition in vivo at 100 mg/kg: 69.7%
[1]
  Water-Immersion Stress Ulcer Ulcer Index: 4.0 ± 1.3 mm^2

## Cc1nc2sc3ccccc3n2c1COC(C)C.Cl [Example 13, 2-Methylimidazo[2,1-b]benzothiazole-3-methanol isopropyl ether hydrochloride]
Gastric juice secretion; [2]
  Acid Output: 57.6 ± 16.4 mcEq/100 g
  Free HCl: 22.3 ± 10.7 mcEq/100 g
  Pepsin Output: 13.0 ± 2.3 mg tyrosine/100 g
  Volume (gastric juice): 1.29 ± 0.23 ml/100 g
  pH (gastric juice): 2.70 ± 0.53
aspirin-induced ulcer; vs control group
  inhibition in vivo at 100 mg/kg: 71%
aspirin-induced ulcer
  Aspirin Induced Ulcer Ulcer Index: 24.4 ± 3.3 mm^2
Ddy strain male mice; 500 mg/kg p.o
  Mortality (No. death/No. treated): 0/5
Ddy strain male mice; 1000 mg/kg p.o
  Mortality (No. death/No. treated): 5/5

## COc1cc2c(sc3nc(C)c(CO)n32)c(OC)c1OC [Example 10, 6,7,8-Trimethoxy-2-methylimidazo[2,1-b]benzothiazole-3-methanol]
Gastric juice secretion; [4]
  inhibition in vivo at 100 mg/kg: 17.5%
Gastric juice secretion; [5]
  Volume (gastric juice): 5.2 ± 0.5 mL
Gastric juice secretion; pyloric ligature, 4 h
  Acidity: 87.3 ± 3.5 mEq/l
  Free HCl: 50.4 ± 3.2 mEq/l
  Pepsin Activity: 103.5 ± 1.8 units/ml
  Pepsin Output: 133.7 ± 10.8 units/hr
Gastric juice secretion; [6]
  pH (gastric juice): 1.47 ± 0.03
aspirin-induced ulcer; vs control group
  inhibition in vivo at 100 mg/kg: 29.5%
aspirin-induced ulcer
  Aspirin Induced Ulcer Ulcer Index: 53.7 ± 8.3 mm^2
[1]; [3]
  inhibition in vivo at 100 mg/kg: 27.3%
[1]
  Water-Immersion Stress Ulcer Ulcer Index: 9.6 ± 2.1 mm^2
